In patent publication US20250320193A1, “OXOISOINDOLINYL SUBSTITUTED PIPERIDINEDIONE DERIVATIVE AND USE THEREOF” (GLUETACS THERAPEUTICS (SHANGHAI) CO., LTD., priority 2022, published 2025):
Where two headings read alike, the source gives them in different places.

What was measured:
[1] = target: human Cereblon WT GST-tagged protein (Homo sapiens (Human), UniProt Q96SW2); test: CRBN-binding affinity, HTRF (CEREBLON BINDING kit, CISBIO); conditions: HTRF inhibitory activity
Method in brief: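 Compounds were mixed with GST-tagged human Cereblon WT protein, then with Thalidomide-Red tracer and GST Eu antibody, and binding was read by HTRF. Inhibition rate was calculated from 620 nm emission relative to blank control wells (no protein) and solvent control wells.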

[2] = target: IKZF1 (Homo sapiens (Human), UniProt Q13422+Q96SW2); test: Western blot, substrate protein expression in hPBMC: IKZF1; format: cell-based; conditions: hPBMC, compound 500 nM, 24 hours, Western blot
Method in brief: (§1)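 hPBMC, 1×10^6 cells/mL, 24 h compound exposure; RIPA lysis, BCA protein assay, SDS-PAGE, NC membrane immunoblot. Densitometry vs internal control → % protein remaining; degradation % = 100% − remaining; DC50 = conc. at 50% of DMSO band signal.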

[3] = target: IKZF3 (Homo sapiens (Human), UniProt Q96SW2+Q9UKT9); test: Western blot, substrate protein expression in hPBMC: IKZF3; format: cell-based; conditions: hPBMC, compound 500 nM, 24 hours, Western blot
Method in brief: as §1

[4] = target: GSPT1 (Homo sapiens (Human), UniProt P15170+Q96SW2); test: Western blot, substrate protein expression in hPBMC: GSPT1; format: cell-based; conditions: hPBMC, compound 500 nM, 24 hours, Western blot
Method in brief: as §1

[5] = tested on: CAL-62 (human thyroid carcinoma cells); test: Tumor cell proliferation inhibition, CCK-8; format: cell-based
Method in brief: (§2)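 STR-authenticated, mycoplasma-free cells cultured at 37° C with 5% CO2. Compound added 24 h post-seeding, 10 μM top, 5-fold × 10. Viability by CCK-8; IC50 from inhibition curve.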

[6] = tested on: CCRF-CEM (human acute lymphoblastic leukemia T-cells); test: Tumor cell proliferation inhibition, CCK-8; format: cell-based
Method in brief: as §2

[7] = tested on: H146 cells (human small cell lung carcinoma cells); test: Tumor cell proliferation inhibition, CCK-8; format: cell-based
Method in brief: as §2

[8] = tested on: Jurkat cells (human T-cell leukemia cells); test: Tumor cell proliferation inhibition, CCK-8; format: cell-based
Method in brief: as §2

[9] = tested on: Kasumi-1 (human acute myeloid leukemia cells); test: Tumor cell proliferation inhibition, CCK-8; format: cell-based
Method in brief: as §2

[10] = tested on: MDA-MB-231 cells (human breast adenocarcinoma cells); test: Tumor cell proliferation inhibition, CCK-8; format: cell-based
Method in brief: as §2

[11] = tested on: MM.1R cells (dexamethasone-resistant human multiple myeloma cells); test: Tumor cell proliferation inhibition, CCK-8; format: cell-based
Method in brief: as §2

[12] = tested on: MM.1S cells (human multiple myeloma cells); test: Tumor cell proliferation inhibition, CCK-8; format: cell-based; conditions: MM1.S
Method in brief: as §2

[13] = tested on: TMD8 cells (human diffuse large B-cell lymphoma cells); test: Tumor cell proliferation inhibition, CCK-8; format: cell-based
Method in brief: as §2

[14] = CAL-62 cells, CCK-8, read-out: inhibitory activity (IC50, nM) CAL-62
[15] = CCRF-CEM cells, CCK-8, read-out: inhibitory activity (IC50, nM) CCRF-CEM
[16] = NCI-H146, H146 cells, CCK-8, read-out: inhibitory activity (IC50, nM) H146
[17] = Jurkat cells, CCK-8, read-out: inhibitory activity (IC50, nM) Jurkat
[18] = Kasumi-1 cells, CCK-8, read-out: inhibitory activity (IC50, nM) Kasumi-1
[19] = MDA-MB-231 cells, CCK-8, read-out: inhibitory activity (IC50, nM) MDA-MB-231
[20] = MM.1R cells, CCK-8, read-out: inhibitory activity (IC50, nM) MM.1R
[21] = MM.1S cells, CCK-8, read-out: inhibitory activity (IC50, nM) MM.1S
[22] = TMD8 cells, CCK-8, read-out: inhibitory activity (IC50, nM) TMD8

Sequence of GSPT1 (P15170 whole entry): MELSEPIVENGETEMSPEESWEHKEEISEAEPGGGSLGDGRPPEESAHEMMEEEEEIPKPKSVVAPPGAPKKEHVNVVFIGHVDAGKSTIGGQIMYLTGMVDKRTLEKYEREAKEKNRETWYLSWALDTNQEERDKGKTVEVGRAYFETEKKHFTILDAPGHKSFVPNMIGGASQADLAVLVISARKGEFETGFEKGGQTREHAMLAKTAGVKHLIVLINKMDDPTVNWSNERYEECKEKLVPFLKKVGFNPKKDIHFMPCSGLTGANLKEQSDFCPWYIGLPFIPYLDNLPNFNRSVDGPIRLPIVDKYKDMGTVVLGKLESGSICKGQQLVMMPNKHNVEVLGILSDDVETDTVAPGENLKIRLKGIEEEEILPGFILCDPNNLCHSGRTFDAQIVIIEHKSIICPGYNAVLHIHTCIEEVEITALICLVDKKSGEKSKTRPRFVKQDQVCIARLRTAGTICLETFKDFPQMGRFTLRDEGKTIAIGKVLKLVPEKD
Sequence of GSPT1 (Q96SW2 whole entry): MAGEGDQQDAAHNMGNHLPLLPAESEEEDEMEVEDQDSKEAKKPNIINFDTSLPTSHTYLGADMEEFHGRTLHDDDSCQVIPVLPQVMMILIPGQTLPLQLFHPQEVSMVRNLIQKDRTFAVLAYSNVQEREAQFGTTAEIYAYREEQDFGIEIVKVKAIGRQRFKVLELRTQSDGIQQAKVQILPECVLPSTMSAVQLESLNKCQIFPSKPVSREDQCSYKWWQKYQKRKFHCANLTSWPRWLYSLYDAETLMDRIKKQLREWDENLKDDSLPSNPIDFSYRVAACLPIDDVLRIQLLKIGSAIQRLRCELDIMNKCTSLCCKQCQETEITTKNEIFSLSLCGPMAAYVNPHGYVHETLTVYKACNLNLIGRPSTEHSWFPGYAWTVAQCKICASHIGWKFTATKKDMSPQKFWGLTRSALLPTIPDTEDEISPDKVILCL
Sequence of GSPT1 (Q16531 whole entry partner): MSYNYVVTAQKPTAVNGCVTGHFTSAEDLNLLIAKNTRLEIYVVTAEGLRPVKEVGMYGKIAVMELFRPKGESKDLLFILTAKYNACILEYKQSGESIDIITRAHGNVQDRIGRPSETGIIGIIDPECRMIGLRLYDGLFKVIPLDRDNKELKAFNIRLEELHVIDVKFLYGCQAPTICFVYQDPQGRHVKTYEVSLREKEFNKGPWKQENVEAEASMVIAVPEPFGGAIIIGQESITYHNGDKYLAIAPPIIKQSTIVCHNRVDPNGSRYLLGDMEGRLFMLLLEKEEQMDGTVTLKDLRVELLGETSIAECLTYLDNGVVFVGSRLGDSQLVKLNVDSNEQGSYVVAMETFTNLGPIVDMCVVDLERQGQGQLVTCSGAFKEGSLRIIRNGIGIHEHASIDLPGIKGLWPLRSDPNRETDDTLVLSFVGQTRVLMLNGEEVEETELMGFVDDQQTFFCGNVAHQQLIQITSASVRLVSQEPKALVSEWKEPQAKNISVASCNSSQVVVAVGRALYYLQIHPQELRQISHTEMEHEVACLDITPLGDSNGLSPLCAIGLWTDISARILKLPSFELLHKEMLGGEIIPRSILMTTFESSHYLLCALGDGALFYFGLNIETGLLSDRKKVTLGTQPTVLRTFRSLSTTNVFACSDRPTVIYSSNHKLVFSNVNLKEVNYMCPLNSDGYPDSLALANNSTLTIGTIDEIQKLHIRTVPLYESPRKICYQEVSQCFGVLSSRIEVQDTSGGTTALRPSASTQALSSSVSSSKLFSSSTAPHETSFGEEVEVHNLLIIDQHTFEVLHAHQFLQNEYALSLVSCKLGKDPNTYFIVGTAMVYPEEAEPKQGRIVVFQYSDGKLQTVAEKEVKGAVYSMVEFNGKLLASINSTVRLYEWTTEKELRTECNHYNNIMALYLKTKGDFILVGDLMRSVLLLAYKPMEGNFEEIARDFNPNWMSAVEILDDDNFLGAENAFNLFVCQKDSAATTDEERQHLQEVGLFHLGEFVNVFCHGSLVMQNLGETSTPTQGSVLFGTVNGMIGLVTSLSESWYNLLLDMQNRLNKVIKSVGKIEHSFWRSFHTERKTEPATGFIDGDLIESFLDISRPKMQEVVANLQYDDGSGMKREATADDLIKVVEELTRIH
Sequence of IKZF3 (Q9UKT9 whole entry): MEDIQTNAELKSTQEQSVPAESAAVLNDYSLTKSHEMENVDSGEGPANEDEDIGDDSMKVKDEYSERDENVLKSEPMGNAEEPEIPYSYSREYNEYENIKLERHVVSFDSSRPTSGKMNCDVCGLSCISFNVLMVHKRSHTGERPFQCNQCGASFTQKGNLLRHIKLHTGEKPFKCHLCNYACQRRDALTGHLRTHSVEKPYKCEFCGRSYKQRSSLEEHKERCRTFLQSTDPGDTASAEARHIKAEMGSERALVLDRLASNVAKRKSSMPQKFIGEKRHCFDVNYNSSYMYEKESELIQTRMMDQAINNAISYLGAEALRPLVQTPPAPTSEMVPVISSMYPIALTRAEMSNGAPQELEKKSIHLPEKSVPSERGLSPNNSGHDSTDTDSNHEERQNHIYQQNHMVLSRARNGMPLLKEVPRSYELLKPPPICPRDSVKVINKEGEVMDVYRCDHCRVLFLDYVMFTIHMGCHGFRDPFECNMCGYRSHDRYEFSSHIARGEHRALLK
Sequence of IKZF3 (Q96SW2 whole entry): as the sequence (Q96SW2 whole entry) above
Sequence of IKZF3 (Q16531 whole entry partner): as the sequence (Q16531 whole entry partner) above
Sequence of IKZF1 (Q13422 whole entry): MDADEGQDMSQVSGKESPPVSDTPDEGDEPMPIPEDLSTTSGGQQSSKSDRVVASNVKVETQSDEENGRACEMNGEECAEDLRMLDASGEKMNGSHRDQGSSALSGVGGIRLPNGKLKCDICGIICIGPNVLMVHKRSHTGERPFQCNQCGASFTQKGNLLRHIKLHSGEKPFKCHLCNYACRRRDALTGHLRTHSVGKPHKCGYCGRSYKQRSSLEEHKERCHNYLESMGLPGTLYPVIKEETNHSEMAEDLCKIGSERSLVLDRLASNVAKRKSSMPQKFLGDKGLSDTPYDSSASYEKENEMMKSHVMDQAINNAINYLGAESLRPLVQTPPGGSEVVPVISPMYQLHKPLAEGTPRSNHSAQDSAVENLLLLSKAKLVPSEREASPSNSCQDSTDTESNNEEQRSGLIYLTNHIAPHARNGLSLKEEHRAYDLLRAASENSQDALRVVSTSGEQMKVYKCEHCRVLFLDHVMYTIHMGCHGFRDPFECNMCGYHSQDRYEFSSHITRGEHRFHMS
Sequence of IKZF1 (Q96SW2 whole entry): as the sequence (Q96SW2 whole entry) above
Sequence of IKZF1 (Q16531 whole entry partner): as the sequence (Q16531 whole entry partner) above
Sequence of human Cereblon WT GST-tagged protein (Q96SW2 whole entry): as the sequence (Q96SW2 whole entry) above

SMILES | IC50 [1] [nM] | substrate protein remaining % IKZF1 [2] | substrate protein remaining % IKZF3 [3] | substrate protein remaining % GSPT1 [4] | IC50 [5, 14] [nM] | IC50 [6, 15] [nM] | IC50 [7, 16] [nM] | IC50 [8, 17] [nM] | IC50 [9, 18] [nM] | IC50 [10, 19] [nM] | IC50 [11, 20] [nM] | IC50 [12, 21] [nM] | IC50 [13, 22] [nM] | further results
O=C1CCC(N2Cc3c(ccc(CN4CCN(C(c5ccccc5)c5ccccc5)CC4)c3F)C2=O)C(=O)N1 (stereo not drawn) [GT-03466, 3-(5-((4-benzhydrylpiperazin-1-yl)methyl)-4-fluoro-1-oxoisoindolin-2-yl)piperidine-2,6-dione] | < 500 | A (A represents 0% ≤ substrate protein remaining % ≤ 50%) | A (A represents 0% ≤ substrate protein remaining % ≤ 50%) | A (A represents 0% ≤ substrate protein remaining % ≤ 50%) | 1 to 10 | < 1 | 10 to 50 | 1 to 10 | 1 to 10 | 1 to 10 | 1 to 10 | 1 to 10 | 10 to 50 | 
O=C1CCC(N2Cc3cc(CN4CCN([C@@H](c5ccccc5)c5ccccn5)CC4)ccc3C2=O)C(=O)N1 (stereo partly drawn) [GT-04524, 3-(1-oxo-5-((4-((S)-phenyl(pyridin-2-yl)methyl)piperazin-1-yl)methyl)isoindolin-2-yl)piperidine-2,6-dione] | 500 to 1000 | A (A represents 0% ≤ substrate protein remaining % ≤ 50%) | A (A represents 0% ≤ substrate protein remaining % ≤ 50%) | A (A represents 0% ≤ substrate protein remaining % ≤ 50%) | 10 to 50 |  | 100 to 500 | 10 to 50 |  | 500 to 1000 | 10 to 50 | 10 to 50 |  | 
O=C1CCC(N2Cc3cc(CN4CCN(C(c5ccc(Cl)cc5)c5ccc(Cl)cc5)CC4)c(F)cc3C2=O)C(=O)N1 (stereo not drawn) [GT-03699, 3-(5-((4-(bis(4-chlorophenyl)methyl)piperazin-1-yl)methyl)-6-fluoro-1-oxoisoindolin-2-yl)piperidine-2,6-dione] |  | B (B represents substrate protein remaining % > 50%) | A (A represents 0% ≤ substrate protein remaining % ≤ 50%) | A (A represents 0% ≤ substrate protein remaining % ≤ 50%) | 50 to 100 | 10 to 50 |  |  |  |  | 50 to 100 | 50 to 100 |  | 
O=C1CCC(N2Cc3cc(CN4CCN(C(c5cccc(F)c5)c5cccc(F)c5)CC4)ccc3C2=O)C(=O)N1 (stereo not drawn) [GT-03702, 3-(5-((4-(bis(3-fluorophenyl)methyl)piperazin-1-yl)methyl)-1-oxoisoindolin-2-yl)piperidine-2,6-dione] | < 500 | A (A represents 0% ≤ substrate protein remaining % ≤ 50%) | A (A represents 0% ≤ substrate protein remaining % ≤ 50%) | A (A represents 0% ≤ substrate protein remaining % ≤ 50%) | < 1 | < 1 | 10 to 50 | 1 to 10 | 1 to 10 | 1 to 10 | 1 to 10 | < 1 | 10 to 50 | 
O=C1CCC(N2Cc3cc(CN4C5CCC4CN(C(c4ccccc4)c4ccccc4)C5)c(F)cc3C2=O)C(=O)N1 (stereo not drawn) [GT-03839, 3-(5-((3-benzhydryl-3,8-diazabicyclo[3.2.1]octan-8-yl)methyl)-6-fluoro-1-oxoisoindolin-2-yl)piperidine-2,6-dione] | 1000 to 1900 | B (B represents substrate protein remaining % > 50%) | A (A represents 0% ≤ substrate protein remaining % ≤ 50%) | A (A represents 0% ≤ substrate protein remaining % ≤ 50%) | 10 to 50 | 10 to 50 | 500 to 1000 |  | 10 to 50 | 50 to 100 | 10 to 50 | 10 to 50 |  | 
O=C1CCC(N2Cc3cc(CN4CCN(C(c5cccc(F)c5)c5cccc(F)c5)CC4)cc(F)c3C2=O)C(=O)N1 (stereo not drawn) [GT-03704, 3-(5-((4-(bis(3-fluorophenyl)methyl)piperazin-1-yl)methyl)-7-fluoro-1-oxoisoindolin-2-yl)piperidine-2,6-dione] | < 500 | B (B represents substrate protein remaining % > 50%) | A (A represents 0% ≤ substrate protein remaining % ≤ 50%) | A (A represents 0% ≤ substrate protein remaining % ≤ 50%) | 10 to 50 | 1 to 10 | 100 to 500 | 100 to 500 | 50 to 100 | 50 to 100 | 10 to 50 | 10 to 50 |  | 
O=C1CCC(N2Cc3c(ccc(CN4C[C@@H]5C[C@H]4CN5C(c4ccccc4)c4ccccc4)c3F)C2=O)C(=O)N1 (stereo partly drawn) [GT-03724, 3-(5-(((1S,4S)-5-benzhydryl-2,5-diazabicyclo[2.2.1]heptan-2-yl)methyl)-4-fluoro-1-oxoisoindolin-2-yl)piperidine-2,6-dione] | < 500 | A (A represents 0% ≤ substrate protein remaining % ≤ 50%) | A (A represents 0% ≤ substrate protein remaining % ≤ 50%) | A (A represents 0% ≤ substrate protein remaining % ≤ 50%) |  | 10 to 50 |  |  |  |  | 10 to 50 | 10 to 50 |  | 
Nc1cccc2c1C(=O)N(C1CCC(=O)NC1=O)C2=O (stereo not drawn) [pomalidomide, reference compound] |  |  |  |  | > 10000 | 5000 to 10000 | > 10000 | > 10000 | > 10000 | > 10000 | > 10000 | 500 to 1000 | 5000 to 10000 | 
O=C1CCC(N2Cc3cc(CN4CCN([C@H](c5ccccc5)c5ccccn5)CC4)ccc3C2=O)C(=O)N1 (stereo partly drawn) [GT-04523, 3-(1-oxo-5-((4-((R)-phenyl(pyridin-2-yl)methyl)piperazin-1-yl)methyl)isoindolin-2-yl)piperidine-2,6-dione] | 500 to 1000 | A (A represents 0% ≤ substrate protein remaining % ≤ 50%) | A (A represents 0% ≤ substrate protein remaining % ≤ 50%) | A (A represents 0% ≤ substrate protein remaining % ≤ 50%) | 1 to 10 |  | 10 to 50 | 50 to 100 |  | 50 to 100 | 1 to 10 | 1 to 10 | 500 to 1000 | 
Nc1cccc2c1CN(C1CCC(=O)NC1=O)C2=O (stereo not drawn) [lenalidomide, reference compound] |  |  |  |  |  |  |  |  |  |  |  |  |  | IC50 ([5]; CAL-62, read-out: inhibitory activity (IC50, nM) CAL-62): > 10000 nM; IC50 ([6]; CCRF-CEM, read-out: inhibitory activity (IC50, nM) CCRF-CEM): > 10000 nM; IC50 ([7]; NCI-H146, read-out: inhibitory activity (IC50, nM) H146): > 10000 nM; IC50 ([8]; Jurkat, read-out: inhibitory activity (IC50, nM) Jurkat): > 10000 nM; IC50 ([9]; Kasumi 1, read-out: inhibitory activity (IC50, nM) Kasumi-1): > 10000 nM; IC50 ([10]; MDA-MB-231, read-out: inhibitory activity (IC50, nM) MDA-MB-231): > 10000 nM; IC50 ([11]; MM.1R, read-out: inhibitory activity (IC50, nM) MM.1R): > 10000 nM; IC50 ([12]; read-out: inhibitory activity (IC50, nM) MM.1S): > 10000 nM; IC50 ([13]; TMD8, read-out: inhibitory activity (IC50, nM) TMD8): > 10000 nM
O=C1CCC(N2Cc3cc(CN4CCN(C(c5ccccc5)c5ccccc5)CC4)cc(F)c3C2=O)C(=O)N1 (stereo not drawn) [GT-03467, 3-(5-((4-benzhydrylpiperazin-1-yl)methyl)-7-fluoro-1-oxoisoindolin-2-yl)piperidine-2,6-dione] | 500 to 1000 |  |  |  |  | 10 to 50 |  |  | 50 to 100 | 100 to 500 |  | 100 to 500 |  | 
O=C1CCC(N2Cc3cc(CN4CCN(C(c5ccc(Cl)cc5)c5ccc(Cl)cc5)CC4)ccc3C2=O)C(=O)N1 (stereo not drawn) [GT-03566, 3-(5-((4-(bis(4-chlorophenyl)methyl)piperazin-1-yl)methyl)-1-oxoisoindolin-2-yl)piperidine-2,6-dione] | 1000 to 1900 | A (A represents 0% ≤ substrate protein remaining % ≤ 50%) | A (A represents 0% ≤ substrate protein remaining % ≤ 50%) | A (A represents 0% ≤ substrate protein remaining % ≤ 50%) |  | 10 to 50 |  |  |  |  | 100 to 500 | 500 to 1000 |  | 
